Experimental data published in US20240316140A1 (UBIO INC., priority 2021, published 2024).
Residues, ends and D or L forms follow the SMILES beside them.

Experiments:
HepG2 cells = test: Hepatocyte protection ability of peptide against t-BHP damage (MTT); assay type: cell-based, human; details: 10 mM t-BHP
Protocol: HepG2 cells, which are hepatoma cell lines, were dispensed in the 24-well plate at 1×10^5/well and cultured. Thereafter, in order to confirm hepatocyte protection ability of three kinds of synthetic peptides, the peptides were treated by concentration, cultured for 23 hours, and then 10 mM of t-BHP was treated for damage to the hepatocytes to culture the same for 90 minutes.

HepG2 hepatoma cell line = test: HepG2 cytotoxicity evaluation of peptide (MTT); assay type: cell-based, human; details: tested 0.01 to 1000 ug/ml, 24 hours, non-toxic concentration
Protocol: After culturing a HepG2 hepatoma cell line, three kinds of synthetic peptides were added by concentration, and MTT (methylthiazol tetrazolium bromide, Sigma Aldrich) was carried out to confirm cell viability. An appropriate amount (1×10^5/well) of cells was seeded on each well in a 24-well plate (BD, Falcon) to treat a sample according to the concentration, and cell viability was confirmed after cultivation for 24 hours in a 37° C. incubator.

SMILES: CC(C)[C@H](N)C(=O)N[C@H](C(=O)N[C@H](C(=O)N[C@@H](CCC(=O)O)C(=O)O)C(C)C)C(C)C [PEP-1, VVVE] (H-VVVE-OH; N-terminus and C-terminus assumed)
- Hepatocyte Protection Ability (HepG2 cells; 10 ug/ml peptide): 7%
- Test Concentration Setting, Cytotoxicity (HepG2) (HepG2 hepatoma cell line): less than 10 ug/ml

SMILES: CC(C)[C@H](NC(=O)[C@H](CO)NC(=O)[C@@H]1CCCN1C(=O)[C@H](CC(N)=O)NC(=O)[C@H](Cc1ccccc1)NC(=O)[C@H](CC(=O)O)NC(=O)[C@@H](N)CC(=O)O)C(=O)N[C@@H](Cc1c[nH]cn1)C(=O)O [PEP-3] (H-DDFNPSVH-OH; N-terminus and C-terminus assumed)
- Hepatocyte Protection Ability (HepG2 cells; 0.1 ug/ml peptide): 9%
- Hepatocyte Protection Ability (HepG2 cells; 1 ug/ml peptide): 20%
- Hepatocyte Protection Ability (HepG2 cells; 10 ug/ml peptide): 20%
- Test Concentration Setting, Cytotoxicity (HepG2) (HepG2 hepatoma cell line): less than 10 ug/ml

SMILES: CC(C)C[C@H](NC(=O)CNC(=O)[C@@H](N)CC(=O)O)C(=O)N[C@@H](Cc1c[nH]cn1)C(=O)N[C@@H](CC(C)C)C(=O)N[C@@H](CCCNC(=N)N)C(=O)O [PEP-2, DGLHLR] (H-DGLHLR-OH; N-terminus and C-terminus assumed)
- Hepatocyte Protection Ability (HepG2 cells; 0.1 ug/ml peptide): 15%
- Hepatocyte Protection Ability (HepG2 cells; 1 ug/ml peptide): 20%
- Hepatocyte Protection Ability (HepG2 cells; 10 ug/ml peptide): 26%
- Test Concentration Setting, Cytotoxicity (HepG2) (HepG2 hepatoma cell line): less than 10 ug/ml
